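The compound was tested at five concentrations on cells cultured in 96-well plates, with a 48-hour exposure period. At the TGI there is no net growth.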
Tests used:
Assay in all cases: growth of human tumour cells (NCI), 48 h
MOLT-4 leukemia = test system: MOLT-4 leukemia
OVCAR-5 ovarian = test system: OVCAR-5 ovarian
K-562 leukemia = test system: K-562 leukemia
HCC-2998 colon = test system: HCC-2998 colon
DU-145 prostate = test system: DU-145 prostate
786-0 renal = test system: 786-0 renal
ACHN renal = test system: ACHN renal
A498 renal = test system: A498 renal
OVCAR-4 ovarian = test system: OVCAR-4 ovarian
U251 CNS = test system: U251 CNS
HS 578T breast = test system: HS 578T breast
SF-268 CNS = test system: SF-268 CNS
SW-620 colon = test system: SW-620 colon
HT29 colon = test system: HT29 colon
OVCAR-8 ovarian = test system: OVCAR-8 ovarian
SK-OV-3 ovarian = test system: SK-OV-3 ovarian
SF-539 CNS = test system: SF-539 CNS
NCI-H226 lung = test system: NCI-H226 lung
SK-MEL-2 melanoma = test system: SK-MEL-2 melanoma

| Compound | TGI (MOLT-4 leukemia) | TGI (OVCAR-5 ovarian) | TGI (K-562 leukemia) | TGI (HCC-2998 colon) | TGI (DU-145 prostate) | TGI (786-0 renal) | TGI (ACHN renal) | TGI (A498 renal) | TGI (OVCAR-4 ovarian) | TGI (U251 CNS) | TGI (HS 578T breast) | TGI (SF-268 CNS) | TGI (SW-620 colon) | TGI (HT29 colon) | TGI (OVCAR-8 ovarian) | TGI (SK-OV-3 ovarian) | TGI (SF-539 CNS) | TGI (NCI-H226 lung) | TGI (SK-MEL-2 melanoma) |
| --- | --- | --- | --- | --- | --- | --- | --- | --- | --- | --- | --- | --- | --- | --- | --- | --- | --- | --- | --- |
| Cc1cccc(Nc2cn(CCOc3ccccc3)c(=O)n(CCOc3ccccc3)c2=O)c1 | > 100 µM | > 100 µM | > 100 µM | > 100 µM | > 100 µM | > 100 µM | > 100 µM | > 100 µM | > 100 µM | > 100 µM | > 100 µM | > 100 µM | > 100 µM | – | – | – | – | – | – |
| O=C1N[C@@H]([C@H](CCCCCO)OC(=O)c2ccccc2)CO1 | > 100 µM | > 100 µM | > 100 µM | – | > 100 µM | > 100 µM | > 100 µM | > 100 µM | > 100 µM | > 100 µM | > 100 µM | – | > 100 µM | > 100 µM | > 100 µM | > 100 µM | > 100 µM | > 100 µM | > 100 µM |
| CCOC(=O)COc1ccc(/C=C/C(=O)c2ccc(OC)cc2)cc1 | > 100 µM | > 100 µM | > 100 µM | 48.7 µM | 76.8 µM | 54.3 µM | > 100 µM | > 100 µM | – | 34.6 µM | > 100 µM | 82.7 µM | 61.6 µM | 64.9 µM | > 100 µM | – | 41.5 µM | – | 85.8 µM |
| O=C1CC(CC(OCc2ccccc2)C(COCc2ccccc2)OCc2ccccc2)CC(=O)N1 (stereo unspecified) | 74.8 µM | > 100 µM | > 100 µM | > 100 µM | > 100 µM | > 100 µM | > 100 µM | > 100 µM | > 100 µM | > 100 µM | > 100 µM | > 100 µM | > 100 µM | 65.9 µM | > 100 µM | – | > 100 µM | > 100 µM | – |
| O=C(CC(C(=O)c1ccsc1)c1ccccc1)c1cccs1 (stereo unspecified) | > 100 µM | > 100 µM | > 100 µM | > 100 µM | > 100 µM | > 100 µM | > 100 µM | > 100 µM | > 100 µM | > 100 µM | > 100 µM | > 100 µM | > 100 µM | > 100 µM | > 100 µM | > 100 µM | > 100 µM | > 100 µM | – |
| CCN1C(=O)C(=Cc2ccc(-c3ccccc3)cc2)C(=O)N(CC)C1=S | > 100 µM | > 100 µM | > 100 µM | > 100 µM | > 100 µM | > 100 µM | > 100 µM | – | > 100 µM | > 100 µM | > 100 µM | > 100 µM | > 100 µM | > 100 µM | > 100 µM | > 100 µM | > 100 µM | > 100 µM | > 100 µM |
| O=C(NCCNCCO)N/N=C/c1ccc([N+](=O)[O-])cc1 | > 100 µM | > 100 µM | > 100 µM | > 100 µM | > 100 µM | > 100 µM | > 100 µM | > 100 µM | – | > 100 µM | > 100 µM | > 100 µM | > 100 µM | > 100 µM | > 100 µM | > 100 µM | > 100 µM | > 100 µM | > 100 µM |
| COc1ccc(/C=C(\NC(=O)c2ccccc2)C(=O)NN(C)c2ccnc3cc(Cl)ccc23)cc1OC | 47.7 µM | > 100 µM | 51.2 µM | – | 66.3 µM | 79.2 µM | 79 µM | > 100 µM | 90.5 µM | 35.4 µM | > 100 µM | 35.4 µM | 51.3 µM | > 100 µM | 46.8 µM | > 100 µM | 46.5 µM | 40.8 µM | 46 µM |
| N#Cc1ccc(OCc2ccc3nc(-c4ccccc4)c(Cl)nc3c2)cc1 | > 100 µM | > 100 µM | – | > 100 µM | > 100 µM | > 100 µM | > 100 µM | > 100 µM | > 100 µM | > 100 µM | > 100 µM | > 100 µM | > 100 µM | > 100 µM | > 100 µM | – | > 100 µM | – | > 100 µM |
| CSCC[C@H]1C(=O)N=C(N)N1C(=O)OCc1ccccc1 | 51.5 µM | > 100 µM | 71.9 µM | > 100 µM | > 100 µM | > 100 µM | > 100 µM | > 100 µM | > 100 µM | > 100 µM | 49.9 µM | > 100 µM | 33.9 µM | > 100 µM | > 100 µM | – | – | 84.1 µM | > 100 µM |
| Cc1cc(NS(=O)(=O)c2ccc(Nc3c4ccccc4nc4ccc(C(=O)Nc5ccc(S(=O)(=O)N=C(N)N)cc5)cc34)cc2)no1 | > 100 µM | > 100 µM | > 100 µM | > 100 µM | > 100 µM | > 100 µM | > 100 µM | – | > 100 µM | > 100 µM | > 100 µM | > 100 µM | > 100 µM | > 100 µM | > 100 µM | > 100 µM | > 100 µM | > 100 µM | > 100 µM |
| CN(C)Cc1cc(N=Nc2ccccc2Cl)cc(CN(C)C)c1O | > 100 µM | > 100 µM | > 100 µM | > 100 µM | > 100 µM | > 100 µM | > 100 µM | > 100 µM | > 100 µM | > 100 µM | > 100 µM | > 100 µM | > 100 µM | > 100 µM | > 100 µM | – | > 100 µM | > 100 µM | – |
| C1=NCCOCCN=Cc2ccccc2OCc2cccc(n2)COc2ccccc21 | 18.4 µM | > 25 µM | > 25 µM | – | 20.7 µM | > 25 µM | > 25 µM | > 25 µM | > 25 µM | 18.2 µM | 15 µM | > 25 µM | > 25 µM | 10.9 µM | 16.9 µM | > 25 µM | 9.13 µM | – | > 25 µM |
| COC(=O)c1cc(-c2c[nH]cc2C(=O)OCc2ccccc2)cn1S(=O)(=O)c1ccc(C)cc1 | > 100 µM | > 100 µM | > 100 µM | > 100 µM | > 100 µM | > 100 µM | > 100 µM | > 100 µM | > 100 µM | – | > 100 µM | > 100 µM | – | > 100 µM | > 100 µM | > 100 µM | > 100 µM | – | > 100 µM |
